Two compounds from US7060726B2, “Antibacterial agent” (Takasago International Corporation, priority 2001, dated 2006) can be followed below.

Type in all cases: cell-based
Assay [1] concerns Actinomyces naeslundii JCM 8350. Put plainly: MIC, agar medium dilution method (Trypticase Soy Agar). As to conditions: (b) Actinomyces naeslundii, 37° C., 72 hours. Here is the method: (§1) Test for Antibacterial Ability (Measurement of Minimum Inhibitory Concentration (MIC) Using an Agar Medium Dilution Method)
(§2) The samples shown below were dissolved in ethanol to prepare a serial twofold dilution stage and 100 μL of each was added to 10 mL of a sterilized agar medium (Trypticase Soy Agar (BBL)), which was then stirred sufficiently, then transferred to a 9-cm-diameter Petri dish and solidified at ambient temperature. 5 μL of a diluted test bacteria (shown below) solution was implanted in the Petri dish and cultured at 37° C. for 72 hours. After the culturing was finished, the growth state of the medium in this Petri dish was compared with that in a Petri dish (blank) containing no sample and the concentration of the sample in which the growth of bacteria was not seen was defined as MIC.

Assay [2] concerns Actionmyces viscosus JCM 8352. The assay is described as above. The note with it: (c) Actionmyces viscosus, 37° C., 72 hours. The method, then:
as §1, §2

The test system of assay [3] is Fusobacterium nuclestum JCM 6328. Described as above. As to conditions: (d) Fusobacterium nuclestum, 37° C., 72 hours. Here is the method:
as §1, §2

Assay [4] relates to Porphyromonas gingivalis JCM 8525. The assay is described as above. As to conditions: (f) Porphyromonas gingivalis, 37° C., 72 hours. The method, then: as §1, §2
In assay [5] the test system is Prevotella intermedia JCM 6322. The assay is described as above. As to conditions: (e) Prevotella intermedia, 37° C., 72 hours. Here is the method:
as §1, §2

Assay [6] relates to Streptococcus mutans JCM 5175. The description is as above. As to conditions: (a) Streptococcus mutans, 37° C., 72 hours. The method, then: as §1, §2
Assay [7] relates to Staphylococcus aureus ATCC6538. Put plainly: MIC and MBC, liquid medium dilution method (NYG medium), qualification method 2. The note with it: method 2, liquid medium. The method, then: (§3) Measurements of MIC and Minimum Bactericidal Concentration (MBC) by Using a Liquid Medium Dilution Method
(§4) The serial twofold dilution solution of the sample is prepared in the same manner as in the agar medium dilution method. 30 μL of the sample solution having each concentration is added to 3 mL of a liquid medium (NYG medium), to which is further added 60 μL of a test bacteria solution and the medium is cultured at 30° C. for 48 hours.
(§5) A change of the turbidity of the medium is measured using a wavelength of 660 nm to find MIC. The media 60 μL each are taken out from a test tube in which no growth of the bacteria is found and implanted in 3 mL of a new medium and cultured for 48 hours. The minimum concentration at which no growth of the bacteria was observed is defined MBC.

The test system of assay [8] is Staphylococcus aureus IAM12082. Described as above. The note with it: method 2, liquid medium. Here is the method:
as §3, §4, §5

The subject of assay [9] is Staphylococcus aureus. Put plainly: Conclusion from the measurement of MBC (liquid medium dilution method). The note with it: from the results of the measurement of MBC (Table 4). Here is the method: as §3, §4, §5
The subject of assay [10] is Bacillus subtilis PCI 219 IFO 3134. The assay is described as follows: MIC, agar medium dilution method (Mueller Hinton medium), qualification test method 1. As to conditions: method 1, agar, 37° C., 72 hours. Here is the method:
as §2, with “Test for Antibacterial Ability (Measurement of Minimum Inhibitory Concentration (MIC) Using an Agar Medium Dilution Method) Measurement of Minimum Inhibitory Concentration (MIC) Using an Agar Medium Dilution Method The” for “The”, “(Mueller Hinton medium (Difco)),” for “(Trypticase Soy Agar (BBL)),”, “bacteria” for “bacteria (shown below)”, “minimum inhibitory concentration (MIC).” for “MIC.”

Assay [11] relates to Staphylococcus aureus 209P IAM 12082. Described as above. The note with it: method 1, agar, 37° C., 72 hours. The method, then: as §2, with “Test for Antibacterial Ability (Measurement of Minimum Inhibitory Concentration (MIC) Using an Agar Medium Dilution Method) Measurement of Minimum Inhibitory Concentration (MIC) Using an Agar Medium Dilution Method The” for “The”, “(Mueller Hinton medium (Difco)),” for “(Trypticase Soy Agar (BBL)),”, “bacteria” for “bacteria (shown below)”, “minimum inhibitory concentration (MIC).” for “MIC.”

Assay [12] deals with Staphylococcus aureus ATCC 6538. The assay is described as above. The note with it: method 1, agar, 37° C., 72 hours. The method, then:
as §2, with “Test for Antibacterial Ability (Measurement of Minimum Inhibitory Concentration (MIC) Using an Agar Medium Dilution Method) Measurement of Minimum Inhibitory Concentration (MIC) Using an Agar Medium Dilution Method The” for “The”, “(Mueller Hinton medium (Difco)),” for “(Trypticase Soy Agar (BBL)),”, “bacteria” for “bacteria (shown below)”, “minimum inhibitory concentration (MIC).” for “MIC.”

Assay [13] relates to Staphylococcus epidermides JCM 2414. Put plainly: MIC, agar medium dilution method (Mueller Hinton medium). The note with it: (f) Staphylococcus epidermides, 37° C., 72 hours. The method, then:
as §2, with “Test for Antibacterial Ability (Measurement of Minimum Inhibitory Concentration (MIC) Using an Agar Medium Dilution Method) The” for “The”, “samples” for “samples shown below”, “medium,” for “medium (Trypticase Soy Agar (BBL)),”, “bacteria” for “bacteria (shown below)”, “minimum inhibitory concentration (MIC). (f) Staphylococcus epidermides JCM 2414 (g) Corynebacterium minutissimum IFO 15361 • Mueller Hinton medium (Difco) in these cases Sample” for “MIC.”

Assay [14] relates to Corynebacterium minutissimum IFO 15361. The description is as above. As to conditions: (g) Corynebacterium minutissimum, 37° C., 72 hours. Here is the method: as §2, with “Test for Antibacterial Ability (Measurement of Minimum Inhibitory Concentration (MIC) Using an Agar Medium Dilution Method) The” for “The”, “samples” for “samples shown below”, “medium,” for “medium (Trypticase Soy Agar (BBL)),”, “bacteria” for “bacteria (shown below)”, “minimum inhibitory concentration (MIC). (g) Corynebacterium minutissimum IFO 15361 • Mueller Hinton medium (Difco) in these cases Sample” for “MIC.”

Assay [15] relates to Corynebacterium xerosis JCM 1324. The assay is described as above. The note with it: (d) Corynebacterium xerosis, 37° C., 72 hours. Here is the method:
as §2, with “Test for Antibacterial Ability (Measurement of Minimum Inhibitory Concentration (MIC) Using an Agar Medium Dilution Method) The” for “The”, “samples” for “samples shown below”, “medium,” for “medium (Trypticase Soy Agar (BBL)),”, “bacteria” for “bacteria (shown below)”, “minimum inhibitory concentration (MIC). (d) Corynebacterium xerosis JCM 1324 (g) Corynebacterium minutissimum IFO 15361 • Mueller Hinton medium (Difco) in these cases Sample” for “MIC.”

Assay [16] relates to Malassezia furfur IFO 0656. Described as above. As to conditions: (e) Malassezia furfur, 37° C., 72 hours. The method, then:
as §2, with “Test for Antibacterial Ability (Measurement of Minimum Inhibitory Concentration (MIC) Using an Agar Medium Dilution Method) The” for “The”, “samples” for “samples shown below”, “medium,” for “medium (Trypticase Soy Agar (BBL)),”, “bacteria” for “bacteria (shown below)”, “minimum inhibitory concentration (MIC). (e) Malassezia furfur IFO 0656 (g) Corynebacterium minutissimum IFO 15361 • Mueller Hinton medium (Difco) in these cases Sample” for “MIC.”

Assay [17] relates to Bacillus subtilis PCI 219. The assay is described as follows: MIC, agar medium dilution method. The note with it: 37° C., 72 hours. Here is the method: as §2, with “Test for Antibacterial Ability (Measurement of Minimum Inhibitory Concentration (MIC) Using an Agar Medium Dilution Method) The” for “The”, “samples” for “samples shown below”, “medium,” for “medium (Trypticase Soy Agar (BBL)),”, “bacteria” for “bacteria (shown below)”, “minimum inhibitory concentration (MIC).” for “MIC.”

Assay [18] deals with Propionibacterium acnes JCM 6473. The assay is described as follows: MIC, agar medium dilution method (Trypticase Soy Agar). As to conditions: (a) Propionibacterium acnes JCM 6473, 37° C., 72 hours. Here is the method:
as §2, with “Test for Antibacterial Ability (Measurement of Minimum Inhibitory Concentration (MIC) Using an Agar Medium Dilution Method) The” for “The”, “samples” for “samples shown below”, “medium,” for “medium (Trypticase Soy Agar (BBL)),”, “bacteria” for “bacteria (shown below)”, “minimum inhibitory concentration (MIC). (a) Propionibacterium acnes JCM 6473 (c) Bacteriodes fragilis GAI 5560 • Trypticase Soy Agar (BBL) in these cases” for “MIC.”

Assay [19] deals with Propionibacterium acnes ATCC 6919. The assay is described as above. As to conditions: (b) Propionibacterium acnes ATCC 6919, 37° C., 72 hours. Here is the method: as §2, with “Test for Antibacterial Ability (Measurement of Minimum Inhibitory Concentration (MIC) Using an Agar Medium Dilution Method) The” for “The”, “samples” for “samples shown below”, “medium,” for “medium (Trypticase Soy Agar (BBL)),”, “bacteria” for “bacteria (shown below)”, “minimum inhibitory concentration (MIC). (b) Propionibacterium acnes ATCC 6919 (c) Bacteriodes fragilis GAI 5560 • Trypticase Soy Agar (BBL) in these cases” for “MIC.”

Assay [20] relates to Bacteriodes fragilis GAI 5560. The description is as above. The note with it: (c) Bacteriodes fragilis, 37° C., 72 hours. The method, then: as §2, with “Test for Antibacterial Ability (Measurement of Minimum Inhibitory Concentration (MIC) Using an Agar Medium Dilution Method) The” for “The”, “samples” for “samples shown below”, “medium,” for “medium (Trypticase Soy Agar (BBL)),”, “bacteria” for “bacteria (shown below)”, “minimum inhibitory concentration (MIC). (c) Bacteriodes fragilis GAI 5560 • Trypticase Soy Agar (BBL) in these cases” for “MIC.”

As to `Oc1cc(Cl)ccc1Oc1ccc(Cl)cc1Cl` [Sample C-1, Trichlosane], the MIC in [1] came to 3.1 ppm; in assay [2], 3.1 ppm; in assay [3], 3.1 ppm; in [4] it was 3.1 ppm; in assay [5], 3.1 ppm; in assay [6], 6.3 ppm. The MIC in [7] (30° C., 48 hours) is 0.977 ppm; in assay [8] (30° C., 48 hours), 0.244 ppm. The MBC in assay [7] was determined as 1.95 ppm; in [8], 0.977 ppm. In addition, the “bactericidal or bacteriostatic action” value in assay [9] is reported as “strong bactericidal activity”.

As to `CCCCOC(=O)c1ccc(O)cc1` [Sample C-2, Butylparabene], the MIC in assay [1] is given as 100 ppm; in assay [2], 100 ppm; in assay [3], 100 ppm; in assay [4], 50 ppm; in assay [5], 100 ppm; in assay [6], 200 ppm. Moreover, the values for the MIC in assay [10], in [11] and in assay [12] were 200 ppm, 100 ppm and 200 ppm, respectively. In addition, the “Minimum inhibitory concentration (MIC)” value in assay [13] came out at 200 ppm; in [14] it was 200 ppm; in assay [15], 50 ppm; in [16], 100 ppm; in assay [17], 200 ppm; in assay [18], 100 ppm. In addition, the figures for the “Minimum inhibitory concentration (MIC)” value in assay [19] and in [20] were 100 ppm and 50 ppm, respectively.
